For test [1], the system named is lactic acid bacteria (LAB) species (Lactobacillus brevis, Lactobacillus plantarum, Lactobacillus paracasei). Nature of the test: Viable count of lactic acid bacteria cocktail in treated molasses medium. It is filed as cell-based. As to conditions: for Viable Population: LAB in molasses medium, 32° C. As for the experimental part: (§1) A fermentation broth was prepared by diluting 1 part molasses with 3 parts water as is commonly practiced in molasses-based fermentation processes. A cocktail of three lactic acid bacteria (LAB) species (Lactobacillus brevis, Lactobacillus plantarum, Lactobacillus paracasei) was concurrently prepared by growing an overnight culture of each bacteria in deMann-Rogosa-Sharpe (MRS) broth (available from Difco Laboratories, Inc., Sparks, Md.) at 32° C. in a shaking incubator, then combining the broth to make up a mixed culture. A separate overnight culture of Saccharomyces cerevisiae (inoculant yeast) was prepared by growing an overnight culture in Yeast Peptone Dextrose (YPD) broth (available from Difco Laboratories Inc., Sparks, Md.). A potion of the molasses medium was inoculated with the cocktail of LAB to result in approximately 1×10^6 colony forming units (CFU) per ml of medium. A separate portion was inoculated with the yeast to result in approximately 6×10^5 CFU/ml. Portions of the inoculated molasses medium were treated with hydrogen peroxide (HP), quaternary ammonium compound (didecyl dimethyl ammonium chloride) or combinations of the two as outlined below:
(§2) Treated samples were incubated at 32° C. in a shaking incubator, following which serial dilutions were made in phosphate buffered saline (PBS) before plating the dilutions on MRS agar and Potato Dextrose Agar (PDA) plates for viable count determination. The plates were incubated at 32° C. for 48 hrs.

Test [2] deals with Saccharomyces cerevisiae (inoculant yeast). Description: Viable count of inoculant yeast in treated molasses medium. In kind it is cell-based. The note with it: for Viable Population: S. cerevisiae in molasses medium, 32° C. As for the experimental part: as §1, §2

Consider `OO` [HP, hydrogen peroxide], for which the results for the “Viable Population” value in test [1] (75 ppm HP) and in test [1] (100 ppm HP) were 4.5 × 10^5 CFU/ml and 8.1 × 10^4 CFU/ml, respectively. For the same compound, the “reduction of the viable LAB population” value in test [1] (100 ppm HP by itself) was “about 1 log CFU/ml”.
Regarding `CCCCCCCCCC[N+](C)(C)CCCCCCCCCC.[Cl-]` [QAC, didecyl dimethyl ammonium chloride], the “reduction of the LAB population” value in test [1] (100 ppm QAC by itself) is “did not reduce”. The “Viable Population” value in test [1] (100 ppm QAC) is given as 1.19 × 10^6 CFU/ml; in test [1] (150 ppm QAC), 1.16 × 10^6 CFU/ml; in test [2] (100 ppm QAC), 5.0 × 10^5 CFU/ml; in test [2] (150 ppm QAC) it was 3.5 × 10^5 CFU/ml. In test [2] (similar concentrations of QAC and HP, alone or combined), the “effects on the viability of the inoculant yeast” value was “did not have any significant effects”.

For the origin of these results see patent publication US20120322125A1, “CONTROL OF CONTAMINANT MICROORGANISMS IN FERMENTATION PROCESSES WITH SYNERGISTIC FORMULATIONS CONTAINING PEROXIDE COMPOUND AND QUATERNARY AMMONIUM COMPOUND” (E. I. DU PONT DE NEMOURS AND COMPANY, priority 2010, published 2012).
